Laboratory results: paper PMC4585962, “A peptide factor secreted by Staphylococcus pseudintermedius exhibits properties of both bacteriocins and virulence factors” (Scientific Reports, 2015)
No end group written: not given here. *: point of attachment. For = O=C*

What was measured:
[1] = system: HeLa cells; assay: Cytotoxicity, LDH and MTT assays; assay type: cell-based, human; settings: 4 h exposure, said to be similar to the other cell types (Fig. S7)
Experimental: Human skin fibroblasts (HSF, ATCC CRL-2522), adipose-derived stem cells (ASCs, ATCC PCS-500-011), and HeLa human epithelioid cervix carcinoma cells (ATCC CCL-2) were maintained in Dulbecco’s modified Eagle’s medium (DMEM, Sigma) containing 1 g/l glucose, 10% (v/v) foetal bovine serum (FBS), 1 U/ml penicillin, 1 μg/ml streptomycin, and 2.5 μg/ml amphotericin B. Murine P388/D1 monocyte/macrophage cells (ATCC CCL-46) and murine RAW264.7 macrophage-like cells (ATCC TIB-71) were cultured in DMEM containing 4.5 g/l glucose, 5% (v/v) FBS, and antibiotics, as indicated above. Keratinocytes from human skin were grown in KBM Gold Medium (Lonza). All cells were incubated in standard conditions (5% CO2, 37 °C, >95% humidity). […] After a 30-min incubation (RT, in the dark), the reaction was stopped, and the absorbance was measured with a microplate reader (PowerWave X, BioTek Instruments) at 490 nm, followed by subtraction of the absorbance reference value at 690 nm. […] The absorbance of solubilized purple formazan was measured at 540 nm, followed by subtraction of the absorbance reference value at 690 nm. […] The amount of released haemoglobin was spectrophotometrically determined at 540 nm and compared with a positive control (erythrocytes lysed with 1% sodium dodecyl sulphate).

[2] = system: Streptococcus pyogenes PCM 465; assay: MIC, microdilution assay; assay type: cell-based; settings: broth microdilution (CLSI), MHB with 5% lysed horse blood, overnight 37 °C, OD 600 nm; mean of three independent measurements
Experimental: (§1) The microbicidal activity of BacSp222 was determined using the microdilution method in compliance with Clinical and Laboratory Standards Institute (CLSI, for bacteria) guidelines M7-A7[57] and in compliance with the European Committee on Antimicrobial Susceptibility Testing - Subcommittee on Antifungal Susceptibility Testing (EUCAST-AFST, for fungi)[58]. Briefly, the microorganisms were cultivated in dedicated liquid media to reach the early exponential phase or, in the case of Streptococcus spp., grown overnight on agar MHB supplemented with 2.5% (v/v) lysed horse blood (LHB). Subsequently, the microorganisms were diluted to 1 × 10^6 CFU/ml (estimated using an Eddy Jet 2 automatic spiral plater, IUL) in MHB; in MHB supplemented with 5% (v/v) LHB (for streptococci); or, in the case of Candida albicans, in RPMI-1640 medium (Thermo) without L-Glu and phenol red, supplemented with 0.6 g/l L-Glu, 34.53 g/l 3-(N-morpholino)propanesulphonic acid and 18 g/l glucose, pH 7.0. Fifty microliters of microorganism suspension were mixed with an equal volume of appropriate medium containing serial 2- or 1.5-fold dilutions of BacSp222. After the cultures were incubated overnight at 37 °C, the optical density (OD) at 600 nm was measured. The minimal inhibitory concentration (MIC), calculated as a mean value from three independent measurements, was defined as the minimum peptide concentration for which an increase in OD was not observed compared to uninoculated broth.

[3] = system: Staphylococcus intermedius ATCC 29663; assay: MIC, microdilution assay; assay type: cell-based; settings: broth microdilution (CLSI), MHB, overnight 37 °C, OD 600 nm; mean of three independent measurements
Experimental: as §1

[4] = system: P388D1 cells; assay: NO synthesis (nitrite, Griess reagent); assay type: cell-based, murine; settings: 24 h
Experimental: (§2) The murine monocyte/macrophage cell line P388/D1 and murine macrophage-like cell line RAW264.7 were grown in a 96-well plate in DMEM supplemented with 5% (v/v) FBS. Prior to the experiment, the medium was replaced with fresh DMEM enriched with 2% (v/v) of FBS (negative control) or supplemented with 1) 100 ng/ml lipopolysaccharide (LPS, Sigma), 2) 10 ng/ml IFN [drawing 9] (R&D Systems), 3) 0.01–1000 nM BacSp222, or 4) BacSp222 combined with LPS or IFN [drawing 10] . The cells were then cultured for another 24 h to induce iNOS expression and nitric oxide synthesis. The nitrite levels were measured in culture medium by a nitrate assay performed on a microplate. One hundred microliters of cultured media was incubated with 100 μl of Griess reagent (1% (w/v) sulphanilic acid/0.1% (w/v) N-(1-naphtyl) ethylenediaminedihydrochloride (Sigma) in 2.5% (v/v) H3PO4) at room temperature for 10 min. Then, the absorbance was measured at 545 nm using a microplate reader (PowerWave X, BioTek Instruments). Before use, the solution of BacSp222 was tested for LPS contamination using an E-TOXATE assay kit (Sigma). The measurements ascertained that the level of LPS in 1 μM bacteriocin solution was equal to or less than 3 pg/ml.

[5] = system: RAW264.7 cells; assay: NO synthesis (nitrite, Griess reagent); assay type: cell-based, murine; settings: 24 h
Experimental: as §2

[6] = 0.01–1000 nM BacSp222 with LPS 100 ng/ml
[7] = nanomolar concentrations of BacSp222 with IFNγ 10 ng/ml

Substance: For-MAGLLRFLLSKGRALYNWAKSHVGKVWEWLKSGATYEQIKEWIENALGWR [BacSp222]
- cytotoxic effect [1]: sigmoidal, dose-dependent cytotoxic effect
- MIC ± SD [2]: 7.8 µM
- MIC ± SD [3]: 2.00 ± 0.00 µM
- effect on LPS-induced NO production [4, 6]: did not affect
- NO production after exposure to BacSp222 alone ([4]; at 100 and 1000 nM, DMEM 2% FBS, nitrite at 545 nm): able to produce NO
- NO release with BacSp222 together with IFNγ [4, 7]: released NO in a dose-dependent manner
- effect on LPS-induced NO production [5, 6]: did not affect
- NO production after exposure to BacSp222 alone ([5]; 0.01–1000 nM, DMEM 2% FBS, nitrite at 545 nm): Only P388D1 cells were able to produce NO
- NO release with BacSp222 together with IFNγ [5, 7]: released NO in a dose-dependent manner
